Test results reported in patent US20260242440A1, “NOVEL MEANS TO MODULATE NMDA RECEPTOR-MEDIATED TOXICITY” (FUNDAMENTAL PHARMA GMBH, priority 2018, published 2026).
Entries after “also recorded” stand apart in the source; their conditions may differ.

Legend:
synaptic NMDA receptor = assay: Gabazine induced calcium influx into mitochondria (synaptic NMDA receptor signalling); assay type: cell-based, mouse; conditions: primary cultured neurons, polypeptides expressed via rAAV
Description: Gabazine induced mitochondrial Ca^2+ response in primary cultured neurons is recorded and analysed as described in a previous study (Qiu et al, Nat Commun. 2013; 4:2034, incorporated herewith by reference) using a FRET calcium indicator 4mtD3cpv that specifically located to mitochondria. Briefly, mitochondrial Ca^2+ levels were detected with FRET-based and mitochondrial targeted Ca^2+ indicator 4mtD3cpv. 4mtD3cpv were excited at 430±12 nm (CFP) and 500±10 nm (YFP), and emission of CFP (470±12 nm) and YFP (535±15 nm) were separated and filtered using a DualView beam splitter (AHF Analysentechnik and MAG Biosystems), and all fluorescence images were recorded through a 20× water-immersion objective at 1 Hz.
In a further experiment the inventors assessed the impact of the polypeptide comprising the sequence of SEQ ID NO:5 and SEQ ID NO: 54, respectively, on Gabazine induced calcium influx (mitochondria), a measure of synaptic NMDA receptor signalling. The experiment was carried out in primary cultured neurons as described above.

[1] = system: primary mouse hippocampal neurons; assay: NMDA induced cell death (excitotoxicity) in cultured primary neurons; assay type: cell-based; conditions: 30 min pre-treatment with 10 μM compound; NMDA 20 μM for 10 min or 24 hours; cell death 24 hours after challenge
[2] = system: retinal ganglion cells (RGCs); assay: NMDA-induced degeneration of retinal ganglion cells (RGCs) in mice; assay type: in vivo, mouse; conditions: 40 mg/kg i.p. at -16h, -3h, 0 h, +24 h, intravitreal NMDA 20 nmol, 7 days
Description: The inventors also assessed, whether compound P4 can protect retinal ganglion cells against NMDA-induced degeneration. For this purpose, 28 C57BL/6J mice (25±3.5 g) were randomly allocated to two groups. All mice received vehicle (sunflower oil containing 5% ethanol) or P4 (40 mg/kg, dissolved in sunflower oil containing 5% ethanol) through intraperitoneal injection at −16h, −3h, 0 h, +3 h and +24 h in a volume of 50 μL each injection. At 0 h, mice received 20 nmol of NMDA (total volume 2.0 μL) by intravitreal injection in the left eye and saline (total volume 2.0 μL) in the right eye. Both eyes were removed from euthanized mice 7 days after intravitreal injections and fixed in formalin for 15 min before retinas were dissected and processed for whole mount immunostaining. Retinas were incubated in blocking solution (10% FBS, 1% Triton-X 100 in PBS) for 6 h, followed by 24 h incubation with anti-Brn3a antibody in blocking solution at 4° C. Retinas were washed 3 times with PBS and incubated with Donkey anti-rabbit Alexa Fluor-594 for 24 h at room temperature. Retinas were washed again, cut and mounted onto slides. […] Brn3a-positive cells were identified and counted with a macro in Cellprofiler. […]

NMDA receptor = assay: NMDA-induced calcium transients (Fura2 calcium imaging); assay type: cell-based, mouse; conditions: hippocampal neurons, 6 min NMDA (20 μM) application
Description: In a further experiment, the impact of P4 and P15 on NMDA-induced calcium transients was assessed. Briefly, for calcium imaging, primary hippocampal neurons on coverslips were loaded with the cell-permeable, high-affinity ratiometric calcium indicator Fura2-AM (Invitrogen™ F1221), at 1 μM in CO2-independent culture medium (CICM; CICM contains: 10 mM HEPES, 140 mM NaCl, 2.5 mM KCl, 1.0 mM MgCl2, 2.0 mM CaCl2, 1.0 mM Glycine, 35.6 mM Glucose and 0.5 mM Na-pyruvate) for 30 min at 37° C., then washed and left in CICM for another 30 min to allow for de-esterification. Fura2 was excited at 340/11 nm and 380/11 nm, and fluorescence emission was obtained from a 40× UV compatible objective (LUMPLFLN, Olympus) through a 510/20 nm emission filter. For quantification, ImageJ was used to calculate average background-subtracted fluorescence intensities for 340 and 380 nm excitation (F340 and F380) from each neuron. Intracellular calcium levels were plotted as F340/F380 ratios over time, from which the NMDA response amplitude and area under the curve (AUC) was calculated to quantify NMDA-induced calcium influx.

TRPM4 channel = molecular target: T1, TRPM4 channel (Homo sapiens, UniProt Q8TD43); assay: TRPM4 channel function, whole-cell patch clamp in PC3 cells; assay type: cell-based; conditions: 10 μM compound, pre-incubated 30-60 min
T1 construct: PC3 cells are known to express TRPM4 channels; endogenous in cells; host or cells: PC3 prostate cancer cell line
T1 sequence (Q8TD43 whole entry): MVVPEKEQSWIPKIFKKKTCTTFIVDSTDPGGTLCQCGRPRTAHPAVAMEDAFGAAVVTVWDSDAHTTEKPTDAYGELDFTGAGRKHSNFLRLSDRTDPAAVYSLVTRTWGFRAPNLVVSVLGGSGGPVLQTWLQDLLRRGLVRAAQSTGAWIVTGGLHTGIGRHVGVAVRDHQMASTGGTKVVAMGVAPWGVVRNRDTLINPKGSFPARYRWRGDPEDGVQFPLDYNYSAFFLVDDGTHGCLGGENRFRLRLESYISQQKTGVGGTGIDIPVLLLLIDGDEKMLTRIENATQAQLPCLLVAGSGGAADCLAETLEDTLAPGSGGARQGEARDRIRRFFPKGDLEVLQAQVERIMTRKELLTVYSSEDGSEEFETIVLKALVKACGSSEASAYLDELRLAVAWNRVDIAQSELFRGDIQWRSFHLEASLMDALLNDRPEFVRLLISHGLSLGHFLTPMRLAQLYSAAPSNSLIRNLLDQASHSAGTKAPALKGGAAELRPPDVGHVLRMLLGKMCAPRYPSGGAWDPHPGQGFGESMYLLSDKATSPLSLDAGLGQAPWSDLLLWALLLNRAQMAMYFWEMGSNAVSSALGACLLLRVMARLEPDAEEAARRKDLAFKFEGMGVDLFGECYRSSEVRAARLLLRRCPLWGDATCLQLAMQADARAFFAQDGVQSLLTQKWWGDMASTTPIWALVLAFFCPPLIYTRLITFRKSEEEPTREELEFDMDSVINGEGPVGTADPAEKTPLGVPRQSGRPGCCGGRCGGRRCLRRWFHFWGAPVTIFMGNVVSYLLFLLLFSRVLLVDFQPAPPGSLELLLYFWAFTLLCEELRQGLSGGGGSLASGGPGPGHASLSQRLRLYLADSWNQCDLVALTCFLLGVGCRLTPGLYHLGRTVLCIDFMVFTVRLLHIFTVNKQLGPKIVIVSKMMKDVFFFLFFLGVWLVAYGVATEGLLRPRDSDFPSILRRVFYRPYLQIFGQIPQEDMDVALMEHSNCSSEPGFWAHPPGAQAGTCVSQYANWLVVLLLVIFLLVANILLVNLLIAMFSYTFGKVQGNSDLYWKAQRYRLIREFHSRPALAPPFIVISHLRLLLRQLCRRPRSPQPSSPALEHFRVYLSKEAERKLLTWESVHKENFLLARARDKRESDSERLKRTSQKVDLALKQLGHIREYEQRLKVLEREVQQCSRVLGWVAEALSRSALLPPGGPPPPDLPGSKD
Excerpt: To assess any direct impact of compound P4 and compound P15 on TRPM4 channel function independent of NMDA receptors, the inventors used the prostate cancer cell line PC3 and patch clamp recordings. PC3 cells are known to express TRPM4 channels (C. Holzmann et al., Oncotarget. 6, 41783-93 (2015)). TRPM4 currents in turn are characterized by their calcium dependence and outward rectification (P. Launay et al., Cell. 109, 397-407 (2002)). Briefly, whole-cell patch clamp recordings were made from PC3 cells plated on 12 mm round coverslips secured with a platinum ring in a recording chamber (OAC-1, Science Products GmbH) mounted on a fixed-stage upright microscope (BX51WI, Olympus). […] Patch electrodes (3-4 MΩ) were made from 1.5 mm borosilicate glass and filled with cesium-based solutions (in mM: CsCl, 145; NaCl, 8; HEPES, 10; MgCl2, 1; plus either EGTA, 0.2 for a free Ca^2+ concentration of zero; or EGTA, 10 and CaCl2), 9.4 for a calculated free Ca^2+ concentration of 10 μM; Maxchelator, Stanford University). Recordings were made with a Multiclamp 700B amplifier, digitized through a Digidata 1550B and acquired and analyzed using pClamp 10 software (Molecular Devices). Access resistance (range: 10-20 MΩ) was monitored regularly during voltage clamp recordings and data was rejected if changes greater than 20% occurred.

Molecule: SEQ ID NO:5: polypeptide, amino acid residues 633-689 of mouse TRPM4 (NSEERAARLLLRRCPLWGEATCLQLAMQADARAFFAQDGVQSLLTQKWWGEMDSTTP; listed as Mus musculus)
- Gabazine induced calcium influx into mitochondria (synaptic NMDA receptor): neither of these polypeptides affects synaptic NMDA receptor signalling; also recorded: not affected

Molecule: CCN(CCN)Cc1cccc(Br)c1 [P4]
- NMDA receptor induced cell death (transient and chronic NMDA toxicity) [1]: neuroprotective effect
- retinal ganglion cell (RGC) degeneration (Brn3a-positive cells) [2]: reduces retinal ganglion cell (RGC) degeneration
- NMDA-induced calcium transients (NMDA receptor): neither compound P4 nor compound P15 reduced; also recorded: neither compound P4 nor P15 reduced
- TRPM4-like outwardly rectifying current activated by 10 μM Ca2+ (TRPM4 channel): not affected
